Counter-ions that a name gives are not always drawn.

A word on the inhibition: it is the share of the control response that was lost under treatment. Low readings indicate little suppression, high ones strong suppression. By % inhibition is commonly meant the drop in the measured response relative to a control, in per cent. A lower % inhibition goes with a weak effect.

The test system of one experiment is Human Microvascular Endothelial Cells (HMVEC). Kind of experiment: Endothelial cell migration assay (modified Boyden chamber, bFGF-stimulated). It is filed as cell-based. The following applies: Homo sapiens, HMVEC; 200 nM test compound; bFGF in upper chamber, 4 hours at 37 °C; percent inhibition of migration compared to a positive control. The method, then:
The endothelial cell migration assay was performed essentially as described by Polverini, P.J. et al., Methods Enzymol, 198: 440-450 (1991). Briefly, Human Microvascular Endothelial Cells (HMVEC) were starved overnight in DMEM containing 0.1% bovine serum albumin (BSA). Cells were then harvested with trypsin and resuspended in DMEM with 0.1% BSA at a concentration of 1.5 x 10^6 cells/mL. Cells were added to the bottom of a 48-well modified Boyden chamber (Nucleopore Corporation, Cabin John, MD). The chamber was assembled and inverted, and cells were allowed to attach for 2 hours at 37 °C to polycarbonate chemotaxis membranes (5 µm pore size) that had been soaked in 0.1% gelatin overnight and dried. The chamber was then reinverted and basic fibroblast growth factor (bFGF) and test substances were added to the wells of the upper chamber (to a total volume of 50 µL); the apparatus was then incubated for 4 hours at 37 °C. Membranes were recovered, fixed and stained (DiffQuick, Fisher Scientific, Pittsburgh, PA) and the number of cells that had migrated to the upper chamber per 10 high power fields were counted. Background migration to DMEM +0.1% BSA was subtracted and the data reported as the number of cells migrated per 10 high power fields (400X) or when results from multiple experiments were combined, as the percent inhibition of migration compared to a positive control.
`CC(=O)N[C@@H](CCCCN)C(=O)Nc1ccc(C(=O)O)c(-c2cccc(O)c2)c1` [Example 15, (S)-4-[[2-(acetylamino)-6-amino-1-oxohexyl)amino]-2-(3-hydroxyphenyl)benzoic acid] came in with an inhibition at 0.2 µM of 64%.
The same measure, in the same setting: as for `CC(=O)N[C@@H](CCCCN)C(=O)Nc1ccc(C(=O)N[C@@H](CC(=O)O)C(N)=O)c(-c2ccc(O)cc2)c1` [Example 28, (3S)-3-(((5-(((2S)-2-(acetylamino)-6-aminohexanoyl)amino)-4'-hydroxy(1,1'-biphenyl)-2-yl)carbonyl)amino)-4-amino-4-oxobutanoic acid], the figure is 59%; as for `CCOC(=O)Cc1ccc(NC(=O)[C@H](CCCCN)NC(=O)OC(C)(C)C)cc1` [Example 25, (S)-ethyl 4-[[6-amino-2-[[(1,1-dimethylethoxy)carbonyl]amino]-1-oxohexyl]amino]benzeneacetate monohydrochloride], 38%.
On to `COC(=O)c1ccc(NC(=O)[C@H](CCCCN)NC(=O)OC(C)(C)C)cc1-c1ccc(O)cc1` [Example 27, methyl 5-(((2S)-6-amino-2-((tert-butoxycarbonyl)amino)hexanoyl)amino)-4'-hydroxy(1,1'-biphenyl)-2-carboxylate], for which testing at 0.2 µM gave an inhibition of 28%.
In turn, `CC(=O)NC(CCCCN)C(=O)Nc1ccc(C(=O)N[C@@H](CC(=O)O)C(N)=O)c(-c2cccc(O)c2)c1` (stereo partly drawn) [Example 16, (S)-N-[4-[[2-(acetylamino)-6-amino-1-oxohexyl]amino]-2-(3-hydroxyphenyl)benzoyl]-L-α-asparagine] registered an inhibition at 0.2 µM of 86%.
In the case of `CC(C)(C)OC(=O)C[C@H](NC(=O)Cc1ccc(N)cc1)C(=O)OC(C)(C)C` [Example 19, N-[(4-aminophenyl)acetyl]-L-aspartic acid bis(1,1-dimethylethyl) ester], at 0.2 µM the inhibition was 32%.
Same read-out and setting: under `COC(=O)c1ccc(NC(=O)[C@H](CCCCN)NC(C)=O)cc1-c1cccc(O)c1` [Example 14, (S)-methyl 4-[[2-(acetylamino)-6-amino-1-oxohexyl]amino]-2-(3-hydroxyphenyl)benzoate] stands 60%.
`CC(C)(C)OC(=O)N[C@@H](CCCCN)C(=O)Nc1ccc(C(=O)O)c(-c2cccc(O)c2)c1` [Example 31, 5-(((2S)-6-amino-2-((tert-butoxycarbonyl)amino)hexanoyl)amino)-3'-hydroxy(1,1'-biphenyl)-2-carboxylic acid] registered an inhibition at 0.2 µM greater than 95%.
`COC(=O)c1ccc(NC(=O)[C@@H](CCCCN)NC(=O)OC(C)(C)C)cc1-c1cccc(O)c1` [Example 9, (R)-methyl 4-[[6-amino-2-[[(1,1-dimethylethoxy)carbonyl]amino]-1-oxohexyl]amino]-2-(3-hydroxyphenyl)benzoate]: the inhibition at 0.2 µM is greater than 95%.

Staying with this experiment, now noted: bFGF in upper chamber, 4 hours at 37 °C, percent inhibition of migration compared to a positive control.
As to `COC(=O)c1ccc(NC(=O)[C@@H](CCCCN)NC(=O)OC(C)(C)C)cc1-c1ccccc1O` [Example 10, (R)-methyl 4-[[6-amino-2-[[(1,1-dimethylethoxy)carbonyl]amino]-1-oxohexyl]amino]-2-(2-hydroxypheal)benzoate], the “% inhibition at 200 nM test compound” value turned out to be 80%.
For the compound `CC(=O)NC(CCCCN)C(=O)Nc1ccc(C(=O)N[C@@H](CC(N)=O)C(=O)O)c(-c2ccccc2)c1` (some centres unmarked) [Example 17], the “% inhibition at 200 nM test compound” value is listed as greater than 95%.
Same read-out and setting: under `COC(=O)c1ccc(NC(=O)[C@H](CCCCNC(=O)OCc2ccccc2)NC(C)=O)cc1-c1cccc(OCc2ccccc2)c1` [Example 12, (S)-methyl 4-[[2-(acetylamino)-6-[[(phenylmethoxy)carbonyl]amino]-1-oxohexyl]amino]2-[(3-(phenylmethoxy)phenyl benzoate] stands 29%.
Same read-out and setting: under `CC(=O)NC(CCCCN)C(=O)Nc1ccc(C(=O)N[C@@H](CC(N)=O)C(=O)O)cc1` (stereo partly drawn) [Example 18, (S)-N-[4-[[2-(acelylainino)-6-amino-1-oxohexyl]amino]benzoyl]-L-α-asparagine] stands 90%.
Regarding `NC(CCCCNC(=O)OCc1ccccc1)C(=O)Nc1ccc(CC(=O)N[C@@H](CC(=O)O)C(=O)O)cc1` (some centres unmarked) [Example 20], the “% inhibition at 200 nM test compound” value is recorded as 34%.
